Test results published in PubChem BioAssay (NCI).
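GI50 marks 50% less growth. The concentration for full growth arrest is given as TGI.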

Assays:
Test in all cases: NCI tumour cell line growth inhibition, 384-well format
ACHN renal = test system: ACHN renal
SF-539 CNS = test system: SF-539 CNS
A498 renal = test system: A498 renal
OVCAR-4 ovarian = test system: OVCAR-4 ovarian
SK-MEL-2 melanoma = test system: SK-MEL-2 melanoma
COLO 205 colon = test system: COLO 205 colon
NCI-H460 NSCLC = test system: NCI-H460 NSCLC
RXF 393 renal = test system: RXF 393 renal
HOP-92 NSCLC = test system: HOP-92 NSCLC
MDA-MB-468 breast = test system: MDA-MB-468 breast
NCI-H322M lung = test system: NCI-H322M lung
HCT-116 colon = test system: HCT-116 colon
T-47D breast = test system: T-47D breast
SN12C renal = test system: SN12C renal
IGROV1 ovarian = test system: IGROV1 ovarian
EKVX NSCLC = test system: EKVX NSCLC
MDA-MB-231 breast = test system: MDA-MB-231 breast
TK-10 renal = test system: TK-10 renal
KM12 colon = test system: KM12 colon
HCT-15 colon = test system: HCT-15 colon
SNB-19 CNS = test system: SNB-19 CNS
OVCAR-3 ovarian = test system: OVCAR-3 ovarian
RPMI-8226 leukemia = test system: RPMI-8226 leukemia
UACC-257 melanoma = test system: UACC-257 melanoma
PC-3 prostate = test system: PC-3 prostate
SK-MEL-5 melanoma = test system: SK-MEL-5 melanoma
SF-295 CNS = test system: SF-295 CNS
DU-145 prostate = test system: DU-145 prostate
SK-MEL-28 melanoma = test system: SK-MEL-28 melanoma
U251 glioblastoma = test system: U251 glioblastoma
UO-31 renal = test system: UO-31 renal
NCI/ADR-RES ovarian = test system: NCI/ADR-RES ovarian
OVCAR-5 ovarian = test system: OVCAR-5 ovarian
LOX IMVI melanoma = test system: LOX IMVI melanoma
SK-OV-3 ovarian = test system: SK-OV-3 ovarian
NCI-H522 lung = test system: NCI-H522 lung
MCF7 breast = test system: MCF7 breast
786-0 renal = test system: 786-0 renal
HS 578T breast = test system: HS 578T breast
HCC-2998 colon = test system: HCC-2998 colon
BT-549 breast = test system: BT-549 breast
MOLT-4 leukemia = test system: MOLT-4 leukemia
SR leukemia = test system: SR leukemia
CAKI-1 renal = test system: CAKI-1 renal
K-562 leukemia = test system: K-562 leukemia
HT29 colon = test system: HT29 colon
M14 melanoma = test system: M14 melanoma
UACC-62 melanoma = test system: UACC-62 melanoma
SF-268 CNS = test system: SF-268 CNS
SW-620 colon = test system: SW-620 colon
NCI-H226 lung = test system: NCI-H226 lung
MDA-MB-435 melanoma = test system: MDA-MB-435 melanoma
CCRF-CEM leukemia = test system: CCRF-CEM leukemia
MALME-3M melanoma = test system: MALME-3M melanoma
HOP-62 NSCLC = test system: HOP-62 NSCLC
NCI-H23 lung = test system: NCI-H23 lung
SNB-75 CNS = test system: SNB-75 CNS
HL-60(TB) leukemia = test system: HL-60(TB) leukemia
A549 NSCLC = test system: A549 NSCLC

For `O=[N+]([O-])c1ccc(Nc2ccccc2-c2ccccc2)c2nonc12`, the GI50 (ACHN renal) was 15.6 µM, the TGI (ACHN renal) was 34.2 µM and the GI50 (SF-539 CNS) was 17.4 µM. It also gave a TGI (SF-539 CNS) of 33.2 µM, a GI50 (A498 renal) of 14.9 µM and a TGI (A498 renal) of 32.3 µM. For the same compound, the GI50 (OVCAR-4 ovarian) was 7.68 µM, the TGI (OVCAR-4 ovarian) was 28.4 µM and the GI50 (SK-MEL-2 melanoma) was 23 µM. It also gave a TGI (SK-MEL-2 melanoma) of 37.9 µM, a GI50 (COLO 205 colon) of 17.5 µM and a TGI (COLO 205 colon) of 42.3 µM. It also gave a GI50 (NCI-H460 NSCLC) of 11 µM, a TGI (NCI-H460 NSCLC) of 24.1 µM and a GI50 (RXF 393 renal) of 17.4 µM. It also gave a TGI (RXF 393 renal) of 32.2 µM, a GI50 (HOP-92 NSCLC) of 10.5 µM and a TGI (HOP-92 NSCLC) of 24.8 µM. For the same compound, the GI50 (MDA-MB-468 breast) was 3.96 µM, the TGI (MDA-MB-468 breast) was 15.4 µM and the GI50 (NCI-H322M lung) was 17.5 µM. It also gave a TGI (NCI-H322M lung) of 37.3 µM, a GI50 (HCT-116 colon) of 13.9 µM and a TGI (HCT-116 colon) of 28.2 µM. The GI50 (T-47D breast) was 7.99 µM, the TGI (T-47D breast) was 30.9 µM and the GI50 (SN12C renal) was 11.9 µM. The TGI (SN12C renal) was 28.6 µM, the GI50 (IGROV1 ovarian) was 16.1 µM and the TGI (IGROV1 ovarian) was 36.2 µM. The GI50 (EKVX NSCLC) was 13.2 µM, the TGI (EKVX NSCLC) was 30 µM and the GI50 (MDA-MB-231 breast) was 16.2 µM. It also gave a TGI (MDA-MB-231 breast) of 35.1 µM, a GI50 (TK-10 renal) of 14 µM and a TGI (TK-10 renal) of 34.8 µM. For the same compound, the GI50 (KM12 colon) was 16.4 µM, the TGI (KM12 colon) was 33 µM and the GI50 (HCT-15 colon) was 14.3 µM. The TGI (HCT-15 colon) was 29.2 µM, the GI50 (SNB-19 CNS) was 12.9 µM and the TGI (SNB-19 CNS) was 35.1 µM. The GI50 (OVCAR-3 ovarian) was 11.9 µM, the TGI (OVCAR-3 ovarian) was 25.1 µM and the GI50 (RPMI-8226 leukemia) was 7.48 µM. It also gave a TGI (RPMI-8226 leukemia) of 20 µM, a GI50 (UACC-257 melanoma) of 16.5 µM and a TGI (UACC-257 melanoma) of 36.1 µM. The GI50 (PC-3 prostate) was 12.8 µM, the TGI (PC-3 prostate) was 27 µM and the GI50 (SK-MEL-5 melanoma) was 12.9 µM. The TGI (SK-MEL-5 melanoma) was 25.7 µM, the GI50 (SF-295 CNS) was 10.1 µM and the TGI (SF-295 CNS) was 22.9 µM. It also gave a GI50 (DU-145 prostate) of 16.3 µM, a TGI (DU-145 prostate) of 51.2 µM and a GI50 (SK-MEL-28 melanoma) of 13.2 µM. For the same compound, the TGI (SK-MEL-28 melanoma) was 29.7 µM, the GI50 (U251 glioblastoma) was 11.2 µM and the TGI (U251 glioblastoma) was 25.7 µM. It also gave a GI50 (UO-31 renal) of 13 µM, a TGI (UO-31 renal) of 27.5 µM and a GI50 (NCI/ADR-RES ovarian) of 12.7 µM. The TGI (NCI/ADR-RES ovarian) was 27.9 µM, the GI50 (OVCAR-5 ovarian) was 15.8 µM and the TGI (OVCAR-5 ovarian) was 36.9 µM. The GI50 (LOX IMVI melanoma) was 15.9 µM, the TGI (LOX IMVI melanoma) was 29.7 µM and the GI50 (SK-OV-3 ovarian) was 19.9 µM. It also gave a TGI (SK-OV-3 ovarian) of 40.4 µM, a GI50 (NCI-H522 lung) of 9.27 µM and a TGI (NCI-H522 lung) of 22.9 µM. It also gave a GI50 (MCF7 breast) of 13.8 µM, a TGI (MCF7 breast) of 31.3 µM and a GI50 ([…]-0 renal) of 12.6 µM. It also gave a TGI (786-0 renal) of 25.6 µM, a GI50 (HS 578T breast) of 10.4 µM and a TGI (HS 578T breast) of 23.8 µM. For the same compound, the GI50 (HCC-2998 colon) was 22.3 µM, the TGI (HCC-2998 colon) was 40.8 µM and the GI50 (BT-549 breast) was 17.1 µM. The TGI (BT-549 breast) was 32.2 µM, the GI50 (MOLT-4 leukemia) was 12.8 µM and the TGI (MOLT-4 leukemia) was 25.6 µM. For the same compound, the GI50 (SR leukemia) was 19 µM, the TGI (SR leukemia) was 33.3 µM and the GI50 (CAKI-1 renal) was 14.5 µM. It also gave a TGI (CAKI-1 renal) of 33.3 µM, a GI50 (K-562 leukemia) of 11.5 µM and a TGI (K-562 leukemia) of 28.6 µM. For the same compound, the GI50 (HT29 colon) was 15.9 µM, the TGI (HT29 colon) was 33.8 µM and the GI50 (M14 melanoma) was 13.9 µM. For the same compound, the TGI (M14 melanoma) was 30.9 µM, the GI50 (UACC-62 melanoma) was 13.6 µM and the TGI (UACC-62 melanoma) was 28.3 µM. The GI50 (SF-268 CNS) was 15.6 µM, the TGI (SF-268 CNS) was 34.1 µM and the GI50 (SW-620 colon) was 16.4 µM. It also gave a TGI (SW-620 colon) of 35.7 µM, a GI50 (NCI-H226 lung) of 11.2 µM and a TGI (NCI-H226 lung) of 23.6 µM. It also gave a GI50 (MDA-MB-435 melanoma) of 10.7 µM, a TGI (MDA-MB-435 melanoma) of 30.1 µM and a GI50 (CCRF-CEM leukemia) of 11.3 µM. It also gave a TGI (CCRF-CEM leukemia) of 23.6 µM, a GI50 (MALME-3M melanoma) of 16.8 µM and a TGI (MALME-3M melanoma) of 36.3 µM. It also gave a GI50 (HOP-62 NSCLC) of 13.7 µM, a TGI (HOP-62 NSCLC) of 28.4 µM and a GI50 (NCI-H23 lung) of 5.93 µM. For the same compound, the TGI (NCI-H23 lung) was 20.5 µM, the GI50 (SNB-75 CNS) was 14.1 µM and the TGI (SNB-75 CNS) was 34 µM. The GI50 (HL-60(TB) leukemia) was 13.3 µM, the TGI (HL-60(TB) leukemia) was 26.5 µM and the GI50 (A549 NSCLC) was 14.1 µM. The TGI (A549 NSCLC) was 30.9 µM.
